Test results from patent US8476298B2 (Exelixis, Inc., priority 2003, dated 2013).
Where two headings read alike, the source gives them in different places.

How the values were obtained:
[1] = target: T1, Flt-3 (baculovirus expressed human Flt-3 kinase domain R571-S993) (Homo sapiens, UniProt P36888); test: biochemical; settings: read-out: flt3 IC50;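 note: Luciferase-coupled chemiluminescent kinase assay, activity read as percent ATP left after a 3 h reaction at room temperature, ATP near KM, 10-point dose-response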
T1 construct: human Flt-3 kinase domain R571-S993; host or cells: baculovirus expression
T1 sequence (P36888 571-993): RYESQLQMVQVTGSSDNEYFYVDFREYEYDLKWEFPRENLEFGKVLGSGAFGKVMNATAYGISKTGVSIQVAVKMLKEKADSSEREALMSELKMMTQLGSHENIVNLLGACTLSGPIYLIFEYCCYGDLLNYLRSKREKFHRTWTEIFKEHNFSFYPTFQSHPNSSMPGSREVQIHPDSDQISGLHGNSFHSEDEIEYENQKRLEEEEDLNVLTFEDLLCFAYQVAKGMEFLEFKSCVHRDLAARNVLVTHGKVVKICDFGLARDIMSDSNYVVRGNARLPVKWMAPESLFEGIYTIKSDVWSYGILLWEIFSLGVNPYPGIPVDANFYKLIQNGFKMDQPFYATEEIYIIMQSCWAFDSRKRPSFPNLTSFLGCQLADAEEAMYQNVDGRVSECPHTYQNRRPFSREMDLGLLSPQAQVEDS

[2] = target: T2, c-Met (baculovirus expressed human c-Met kinase domain P948-S1343) (Homo sapiens, UniProt P08581); test: c-Met Luciferase-Coupled Chemiluminescent Kinase assay (LCCA); assay type: biochemical;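 note: kinase activity read as percent ATP left after reaction, by luciferase-luciferin chemiluminescence, with 1 µM ATP and 1 µM poly-EY substrate, 2 h at ambient temperature, 10-point dose-response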
T2 construct: human c-Met kinase domain P948-S1343; host or cells: baculovirus expression
T2 sequence (P08581 1011-1343 limits assumed): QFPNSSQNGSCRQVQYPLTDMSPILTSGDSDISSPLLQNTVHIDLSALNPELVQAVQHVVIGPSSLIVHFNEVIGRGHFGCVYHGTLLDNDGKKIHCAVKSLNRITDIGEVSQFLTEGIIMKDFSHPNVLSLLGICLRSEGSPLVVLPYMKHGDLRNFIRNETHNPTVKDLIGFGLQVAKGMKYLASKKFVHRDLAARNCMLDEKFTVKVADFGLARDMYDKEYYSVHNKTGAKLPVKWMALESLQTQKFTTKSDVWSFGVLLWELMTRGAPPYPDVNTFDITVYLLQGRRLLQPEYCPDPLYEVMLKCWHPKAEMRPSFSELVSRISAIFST

[3] = target: T3, KDR (baculovirus expressed human KDR kinase domain D807-V1356) (Homo sapiens, UniProt P35968); test: biochemical;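 note: Luciferase-coupled chemiluminescent kinase assay, activity read as percent ATP left after 4 h reaction at ambient temperature, ATP near KM, 10-point dose-response in 384-well plates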
T3 construct: human KDR kinase domain D807-V1356; host or cells: baculovirus expression
T3 sequence (P35968 807-1356): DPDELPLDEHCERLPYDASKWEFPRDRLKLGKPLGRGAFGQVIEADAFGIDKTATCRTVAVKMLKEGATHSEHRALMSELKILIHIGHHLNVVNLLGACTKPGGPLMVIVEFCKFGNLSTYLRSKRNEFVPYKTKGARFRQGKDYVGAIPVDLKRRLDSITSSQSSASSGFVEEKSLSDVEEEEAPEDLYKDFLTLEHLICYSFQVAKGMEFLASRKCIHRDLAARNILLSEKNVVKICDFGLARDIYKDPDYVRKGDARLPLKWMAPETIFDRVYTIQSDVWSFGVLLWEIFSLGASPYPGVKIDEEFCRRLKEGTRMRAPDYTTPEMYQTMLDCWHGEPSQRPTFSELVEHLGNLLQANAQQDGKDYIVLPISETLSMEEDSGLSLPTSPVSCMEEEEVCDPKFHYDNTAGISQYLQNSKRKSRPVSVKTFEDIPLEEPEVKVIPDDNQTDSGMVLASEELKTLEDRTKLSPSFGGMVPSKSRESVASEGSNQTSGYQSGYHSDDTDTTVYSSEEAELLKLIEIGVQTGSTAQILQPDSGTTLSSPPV

[4] = Table 4, inhibition as IC50 class

Row | IC50 [1, 4] | IC50 [2, 4] | IC50 [3, 4] | IC50 [1] | IC50 [2] | IC50 [3] | SMILES
1 | < 50 nM | < 50 nM | < 50 nM | – | – | – | COc1cc(CNC(=O)C(=O)Nc2ccc(Oc3ccnc4cc(OCC5CCNCC5)c(OC)cc34)c(F)c2)cc(OC)c1 [Example 269, N-{[3,5-bis(methyloxy)phenyl]methyl}-N′-[3-fluoro-4-({6-(methyloxy)-7-[(piperidin-4-ylmethyl)oxy]quinolin-4-yl}oxy)phenyl]ethanediamide]
2 | – | – | – | < 50 nM | < 50 nM | < 50 nM | CCN(CC)CCCOc1cc2c(Oc3ccc(NC(=O)C4(C(=O)Nc5ccc(F)cc5)CC4)cc3F)ccnc2cc1OC [Example 344, N-(4-{[6-{[3-(diethylamino)propyl]oxy}-7-(methyloxy)quinolin-4-yl]oxy}-3-fluorophenyl)-N′-(4-fluorophenyl)cyclopropane-1,1-dicarboxamide]
3 | – | – | – | < 50 nM | < 50 nM | < 50 nM | CCN(CC)CCOc1cc2c(Oc3ccc(NC(=O)C4(C(=O)Nc5ccc(F)cc5)CC4)cc3F)ccnc2cc1OC [Example 345, N-(4-{[6-{[2-(diethylamino)ethyl]oxy}-7-(methyloxy)quinolin-4-yl]oxy}-3-fluorophenyl)-N′-(4-fluorophenyl)cyclopropane-1,1-dicarboxamide]
4 | – | – | – | 50 to 500 nM | < 50 nM | < 50 nM | COc1cc2c(Oc3ccc(NC(=O)C4(C(=O)Nc5ccc(F)cc5)CC4)cc3F)ccnc2cc1OCCCN1CCN(C(=O)OC(C)(C)C)CC1 [Example 346, 1,1-dimethylethyl 4-(3-{[4-[(2-fluoro-4-{[(1-{[(4-fluorophenyl)amino]carbonyl}cyclopropyl)carbonyl]amino}phenyl)oxy]-6-(methyloxy)quinolin-7-yl]oxy}propyl)piperazine-1-carboxylate]
5 | – | – | – | 50 to 500 nM | < 50 nM | < 50 nM | CCN(CC)CCOc1cc2ncnc(Oc3ccc(NC(=O)[C@]4(C(=O)Nc5ccc(F)cc5)C[C@H]4C)cc3F)c2cc1OC [Example 348, (1R,2R)-N-(4-{[7-{[2-(diethylamino)ethyl]oxy}-6-(methyloxy)quinazolin-4-yl]oxy}-3-fluorophenyl)-N′-(4-fluorophenyl)-2-methylcyclopropane-1,1-dicarboxamide]
6 | – | – | – | < 50 nM | < 50 nM | < 50 nM | CCN(CC)CCCOc1cc2ncnc(Oc3ccc(NC(=O)C4(C(=O)Nc5ccc(F)cc5)CC4)cc3F)c2cc1OC [Example 349, N-(4-{[7-{[3-(diethylamino)propyl]oxy}-6-(methyloxy)quinazolin-4-yl]oxy}-3-fluorophenyl)-N′-(4-fluorophenyl)cyclopropane-1,1-dicarboxamide]
7 | – | – | – | < 50 nM | < 50 nM | < 50 nM | COc1cc2c(Oc3ccc(NC(=O)C4(C(=O)Nc5ccc(F)cc5)CC4)cc3F)ccnc2cc1OCCCN1CCN(C(C)=O)CC1 [Example 350, N-(4-{[7-{[3-(4-acetylpiperazin-1-yl)propyl]oxy}-6-(methyloxy)quinolin-4-yl]oxy}-3-fluorophenyl)-N′-(4-fluorophenyl)cyclopropane-1,1-dicarboxamide]
8 | – | – | – | 50 to 500 nM | < 50 nM | < 50 nM | COc1cc2c(Oc3ccc(NC(=O)[C@]4(C(=O)Nc5ccc(F)cc5)C[C@H]4C)cc3F)ccnc2cc1OCCCN1CCN(C(=O)OC(C)(C)C)CC1 [Example 351, 1,1-dimethylethyl 4-(3-{[4-[(2-fluoro-4-{[((1R,2R)-1-{[(4-fluorophenyl)amino]carbonyl}-2-methylcyclopropyl)carbonyl]amino}phenyl)oxy]-6-(methyloxy)quinolin-7-yl]oxy}propyl)piperazine-1-carboxylate]
9 | – | – | – | 500 to 5000 nM | < 50 nM | 500 to 5000 nM | COc1cc2nccc(Oc3ccc(NC(=O)C4(C(=O)Nc5ccc(F)cc5)CN(Cc5ccccc5)C4)cc3)c2cc1OC [Example 352, N-(4-{[6,7-bis(methyloxy)quinolin-4-yl]oxy}phenyl)-N′-(4-fluorophenyl)-1-(phenylmethyl)azetidine-3,3-dicarboxamide]
10 | – | – | – | 500 to 5000 nM | 50 to 500 nM | 500 to 5000 nM | COc1cc2nccc(Oc3ccc(NC(=O)C4(C(=O)Nc5ccc(F)cc5)CNC4)cc3)c2cc1OC [Example 353, N-(4-{[6,7-bis(methyloxy)quinolin-4-yl]oxy}phenyl)-N′-(4-fluorophenyl)azetidine-3,3-dicarboxamide]
11 | – | – | – | < 50 nM | < 50 nM | < 50 nM | COc1cc2c(Oc3ccc(NC(=O)[C@]4(C(=O)Nc5ccc(F)cc5)C[C@@H]4C)cc3F)ccnc2cc1OCCCN1CCN(C)CC1 [Example 354, (1R,2S)-N-{3-fluoro-4-[(6-(methyloxy)-7-{[3-(4-methylpiperazin-1-yl)propyl]oxy}quinolin-4-yl)oxy]phenyl}-N′-(4-fluorophenyl)-2-methylcyclopropane-1,1-dicarboxamide]
12 | – | – | – | < 50 nM | < 50 nM | < 50 nM | COc1cc2c(Oc3ccc(NC(=O)[C@]4(C(=O)Nc5ccc(F)cc5)C[C@H]4C)cc3F)ccnc2cc1OCCCN1CCN(C)CC1 [Example 355, (1R,2R)-N-{3-fluoro-4-[(6-(methyloxy)-7-{[3-(4-methylpiperazin-1-yl)propyl]oxy}quinolin-4-yl)oxy]phenyl}-N′-(4-fluorophenyl)-2-methylcyclopropane-1,1-dicarboxamide]
13 | – | – | – | < 50 nM | < 50 nM | < 50 nM | COc1cc2c(Oc3ccc(NC(=O)[C@]4(C(=O)Nc5ccc(F)cc5)C[C@H]4C)cc3F)ccnc2cc1OCCCN1CCNCC1 [Example 356, (1R,2R)-N-[3-fluoro-4-({6-(methyloxy)-7-[(3-piperazin-1-ylpropyl)oxy]quinolin-4-yl}oxy)phenyl]-N′-(4-fluorophenyl)-2-methylcyclopropane-1,1-dicarboxamide]
14 | – | – | – | < 50 nM | < 50 nM | < 50 nM | COc1cc2c(Oc3ccc(NC(=O)C4(C(=O)Nc5ccc(F)cc5)CC4)cc3F)ccnc2cc1OCCCN1CCN(C(C)C)CC1 [Example 357, N-(3-fluoro-4-{[7-({3-[4-(1-methylethyl)piperazin-1-yl]propyl}oxy)-6-(methyloxy)quinolin-4-yl]oxy}phenyl)-N′-(4-fluorophenyl)cyclopropane-1,1-dicarboxamide]
15 | – | – | – | < 50 nM | < 50 nM | < 50 nM | CCN(CC)CCCOc1cc2nccc(Oc3ccc(NC(=O)[C@]4(C(=O)Nc5ccc(F)cc5)C[C@H]4C)cc3F)c2cc1OC [Example 359, (1R,2R)-N-(4-{[7-{[3-(diethylamino)propyl]oxy}-6-(methyloxy)quinolin-4-yl]oxy}-3-fluorophenyl)-N′-(4-fluorophenyl)-2-methylcyclopropane-1,1-dicarboxamide]
16 | – | – | – | < 50 nM | < 50 nM | < 50 nM | CCN(CC)CCOc1cc2nccc(Oc3ccc(NC(=O)[C@]4(C(=O)Nc5ccc(F)cc5)C[C@H]4C)cc3F)c2cc1OC [Example 360, (1R,2R)-N-(4-{[7-{[2-(diethylamino)ethyl]oxy}-6-(methyloxy)quinolin-4-yl]oxy}-3-fluorophenyl)-N′-(4-fluorophenyl)-2-methylcyclopropane-1,1-dicarboxamide]
17 | – | – | – | < 50 nM | < 50 nM | < 50 nM | CCN(CC)CCCOc1cc2nccc(Oc3ccc(NC(=O)[C@]4(C(=O)Nc5ccc(F)cc5)C[C@@H]4C)cc3F)c2cc1OC [Example 361, (1R,2S)-N-(4-{[7-{[3-(diethylamino)propyl]oxy}-6-(methyloxy)quinolin-4-yl]oxy}-3-fluorophenyl)-N′-(4-fluorophenyl)-2-methylcyclopropane-1,1-dicarboxamide]
18 | – | – | – | < 50 nM | < 50 nM | < 50 nM | CCN(CC)CCOc1cc2nccc(Oc3ccc(NC(=O)[C@]4(C(=O)Nc5ccc(F)cc5)C[C@@H]4C)cc3F)c2cc1OC [Example 362, (1R,2S)-N-(4-{[7-{[2-(diethylamino)ethyl]oxy}-6-(methyloxy)quinolin-4-yl]oxy}-3-fluorophenyl)-N′-(4-fluorophenyl)-2-methylcyclopropane-1,1-dicarboxamide]
19 | – | – | – | – | < 50 nM | < 50 nM | CCN(CC)CCOc1cc2ncnc(Oc3ccc(NC(=O)C4(C(=O)Nc5ccc(F)cc5)CCC4)cc3F)c2cc1OC [Example 363, N-(4-{[7-{[2-(diethylamino)ethyl]oxy}-6-(methyloxy)quinazolin-4-yl]oxy}-3-fluorophenyl)-N′-(4-fluorophenyl)cyclobutane-1,1-dicarboxamide]
20 | – | – | – | – | 50 to 500 nM | < 50 nM | COc1cc2nccc(Oc3ccc(NC(=O)C4(C(=O)Nc5cccc(CN6CCCCC6)c5)CC4)cc3)c2cc1OC [Example 400, N-(4-{[6,7-bis(methyloxy)quinolin-4-yl]oxy}phenyl)-N′-[3-(piperidin-1-ylmethyl)phenyl]cyclopropane-1,1-dicarboxamide]
21 | – | – | – | – | < 50 nM | < 50 nM | COc1cc2nccc(Oc3ccc(NC(=O)C4(C(=O)Nc5cccc(CN6CCCC6)c5)CC4)cc3)c2cc1OC [Example 401, N-(4-{[6,7-bis(methyloxy)quinolin-4-yl]oxy}phenyl)-N′-[3-(pyrrolidin-1-ylmethyl)phenyl]cyclopropane-1,1-dicarboxamide]
